In data set [1] the test system is cells. Description: AP1903 amount for effective signaling of cells in vitro. It is filed as cell-based. Conditions: 1600 Da MW. Here is the method: The fixed dose of AP1903 for injection used, for example, may be 0.4 mg/kg intravenously infused over 2 hours. The amount of AP1903 needed in vitro for effective signaling of cells is 10-100 nM (1600 Da MW). This equates to 16-160 μg/L or 0.016-1.6 μg/kg (1.6-160 μg/kg). Doses up to 1 mg/kg were well-tolerated in the Phase I study of AP1903 described above. Therefore, 0.4 mg/kg may be a safe and effective dose of AP1903 for this Phase I study in combination with the therapeutic cells.

The conditions of data set [2]: cited from earlier work.
Data set [3] has as its system cells. Conditions: cited from earlier work.
The next data set concerns the target T1, iC9 safety switch (Homo sapiens, UniProt P62942, F37V).
T1 construct: expressed in transfected cells
Description: iC9 safety switch test: viability by flow cytometry using 7-AAD after AP1903. It is filed as cell-based. The text has this: Human pan T-cells were nucleofected using an Amaxa 4D nucleofector with one of four piggyBac transposons. Modified T cells receiving the “mock” condition were nucleofected with an empty piggyBac transposon. Modified T cells received either a piggyBac transposon containing a therapeutic agent alone (a sequence encoding a CARTyrin) or a piggyBac transposon containing an integrated iC9 sequence and a therapeutic agent (a sequence encoding a CARTyrin).
To test the iC9 safety switch, each of the four modified T cells were incubated for 24 hours with 0, 0.1 nM, 1 nM, 10 nM, 100 nM or 1000 nM AP1903 (an induction agent for […]). Viability was assessed by flow cytometry using 7-aminoactinomycin D (7-AAD), a fluorescent intercalator, as a marker for cells undergoing apoptosis.
Cell viability was assessed at day 12 (see FIG. 9). […] Moreover, cell viability was assessed at day 19 (see FIG. 10). […]
A quantification of the aggregated results was performed and is provided in FIG. 11, showing the significant impact of the iC9 safety switch on the percent cell viability as a function of the concentration of the induction agent (AP1903) of the iC9 switch for each modified cell type at either day 12 (FIG. 9 and left graph) or day 19 (FIG. 10 and right graph).

The subject of a further data set is Pan T cells. Description: Expansion of BCMA CAR-T cells with CSR over 19 day culture. In kind it is cell-based, human. Conditions: CSR transient (mRNA) or stable (piggyBac). The text has this:
FIG. 36 is a graph showing that delivery of CSR enhances the expansion of CAR-T cells. CSRs were delivered to CAR-T cells either transiently by mRNA or stably by piggyBac™. Pan T cells isolated from the blood of a normal donor were genetically modified using the piggyBac™ DNA modification system and the standard Poseida process. Cells were co-electroporated in a single reaction with mRNA encoding the Super piggyBac transposase enzyme (SPB), a transposon encoding a BCMA CAR and selection gene, along with an additional mRNA encoding a CSR (either CD28z or CD2z; resulting in transient expression) or a CD19 mRNA control, or, with a transposon encoding a BCMA CAR, selection gene and a CSR (either CD28z or CD2z; resulting in stable expression). The cells were subsequently stimulated with agonist mAbs anti-CD2, anti-CD3 and anti-CD28, and were later selected for genetic modification over the course of a 19 day culture period. At the end of the initial culture period all T cells expressed the CAR, indicating successful selection for genetically-modified cells (data not shown). Bars represent total live CAR-T cells in well and numbers indicate fold-enhancement of expansion above CAR-T cells produced in the absence of a CSR or a CD19 mRNA control.

T1 sequence (P62942 with tags, fused parts or gaps F37V): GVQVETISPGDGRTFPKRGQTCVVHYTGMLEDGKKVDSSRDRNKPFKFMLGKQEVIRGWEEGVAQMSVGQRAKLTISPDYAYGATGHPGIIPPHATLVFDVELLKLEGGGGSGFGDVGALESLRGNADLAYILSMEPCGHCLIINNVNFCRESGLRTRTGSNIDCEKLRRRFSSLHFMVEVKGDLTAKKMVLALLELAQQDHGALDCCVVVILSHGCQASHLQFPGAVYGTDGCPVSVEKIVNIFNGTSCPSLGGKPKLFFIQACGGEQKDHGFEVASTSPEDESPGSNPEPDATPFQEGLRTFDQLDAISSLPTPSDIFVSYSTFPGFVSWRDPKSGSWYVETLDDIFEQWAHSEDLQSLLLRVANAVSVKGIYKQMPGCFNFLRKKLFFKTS

Turning to `CC[C@H](C(=O)N1CCCC[C@H]1C(=O)O[C@H](CCc1ccc(OC)c(OC)c1)c1cccc(OCC(=O)NCCNC(=O)COc2cccc([C@@H](CCc3ccc(OC)c(OC)c3)OC(=O)[C@@H]3CCCCN3C(=O)[C@@H](CC)c3cc(OC)c(OC)c(OC)c3)c2)c1)c1cc(OC)c(OC)c(OC)c1` (relative stereo) [AP1903, 2-Piperidinecarboxylic acid, 1-[(2S)-1-oxo-2-(3,4,5-trimethoxyphenyl)butyl]-, 1,2-ethanediylbis[imino(2-oxo-2,1-ethanediyl)oxy-3,1-phenylene[(1R)-3-(3,4-dimethoxyphenyl)propylidene]]ester, [2S-[1(R*),2R*[S*[S*[1(R*),2R*]]]]]-(9C1)], the “amount needed in vitro for effective signaling of cells, converted” value in the data set with cells [1] fell in the range of 16 to 160 µg/L. Besides, in data set [2] (0.01, 0.05, 0.1, 0.5 and 1.0 mg/kg IV over 2 hours), the safety and tolerability result was “safe and well tolerated at all dose levels”. The “mean Cmax” value in data set [2] (0.01-1.0 mg/kg infused IV over 2 hours, healthy volunteers) was 10 to 1275 ng/mL. The “plasma levels versus dose” value in data set [2] (0.01-1.0 mg/kg) was “directly proportional to dose”. The well-tolerated dose entry in data set [2] (Phase I study) is reported as “up to 1 mg/kg”. Besides, in data set [2] (after initial infusion period), the “plasma level as % of maximal concentration, 0.5 hours post-dose” value is listed as “approximately 18%”; the “plasma level as % of maximal concentration, 2 hours post-dose” value is given as approximately 7%; the “plasma level as % of maximal concentration, 10 hours post-dose” value was approximately 1%. Further, the pharmacokinetic profile result in data set [2] (human, in vivo) is “favorable pharmacokinetic profile”. The “amount needed in vitro for effective signaling of cells” value in the data set on cells [3] was 10 to 100 nM. At iC9 safety switch (T cells containing iC9 construct, 24 hours incubation), the “concentration at which AP1903 induces apoptosis (lowest concentration of the study)” value was not above 0.1 nM.

As to “iC9 safety switch: ligand binding region (FKBP12 F36V), a linker, and a truncated caspase 9 polypeptide (SEQ ID NO: 18032)”, in the data set with iC9 safety switch (with induction agent AP1903, by day 12 post-nucleofection), the “apoptosis induced by presence of the iC9 safety switch” value is recorded as “induces apoptosis in a significant majority of cells”.

Consider “CD28z CSR: chimeric stimulatory receptor: wild type CD28 and CD3z intracellular stimulation domain, SEQ ID NO: 17910”, for which the “expansion of CAR-T cells” value in the data set with Pan T cells was “a greater degree of expansion of the CAR-T cells”.

B1: CD2z CSR: chimeric stimulatory receptor: wild type CD2 and CD3z intracellular stimulation domain, SEQ ID NO: 17912 (protein)
chain: MSFPCKFVASFLLIFNVSSKGAVSKEITNALETWGALGQDINLDIPSFQMSDDIDDIKWEKTSDKKKIAQFRKEKETFKEKDTYKLFKNGTLKIKHLKTDDQDIYKVSIYDTKGKNVLEKIFDLKIQERVSKPKISWTCINTTLTCEVMNGTDPELNLYQDGKHLKLSQRVITHKWTTSLSAKFKCTAGNKVSKESSVEPVSCPEKGLDIYLIIGICGGGSLLMVFVALLVFYITKRKKQRSRRNDEELETRAHRVATEERGRKPHQIPASTPQNPATSQHPPPPPGHRSQAPSHRPPPPGHRVQHQPQKRPPAPSGTQVHQQKGPPLPRPRVQPKPPHGAAENSLSPSSNRVKFSRSADAPAYKQGQNQLYNELNLGRREEYDVLDKRRGRDPEMGGKPRRKNPQEGLYNELQKDKMAEAYSEIGMKGERRRGKGHDGLYQGLSTATKDTYDALHMQALPPR
With B1, the “expansion of CAR-T cells” value in the data set with Pan T cells is listed as “a greater degree of expansion of the CAR-T cells”.

These data come from US20210107993A1, “CARTYRIN COMPOSITIONS AND METHODS FOR USE” (Poseida Therapeutics, Inc., priority 2018, published 2021).
